Laboratory results from patent US9290511B2, “Thieno-pyrimidines, useful as potassium channel inhibitors” (XENTION LIMITED, priority 2011, dated 2016).

Molecular target: T1, Kir3.1/3.4 (Rattus norvegicus, UniProt P48548+P63251)
T1 construct: expressed in transfected cells
T1 sequence (P63251 1-501): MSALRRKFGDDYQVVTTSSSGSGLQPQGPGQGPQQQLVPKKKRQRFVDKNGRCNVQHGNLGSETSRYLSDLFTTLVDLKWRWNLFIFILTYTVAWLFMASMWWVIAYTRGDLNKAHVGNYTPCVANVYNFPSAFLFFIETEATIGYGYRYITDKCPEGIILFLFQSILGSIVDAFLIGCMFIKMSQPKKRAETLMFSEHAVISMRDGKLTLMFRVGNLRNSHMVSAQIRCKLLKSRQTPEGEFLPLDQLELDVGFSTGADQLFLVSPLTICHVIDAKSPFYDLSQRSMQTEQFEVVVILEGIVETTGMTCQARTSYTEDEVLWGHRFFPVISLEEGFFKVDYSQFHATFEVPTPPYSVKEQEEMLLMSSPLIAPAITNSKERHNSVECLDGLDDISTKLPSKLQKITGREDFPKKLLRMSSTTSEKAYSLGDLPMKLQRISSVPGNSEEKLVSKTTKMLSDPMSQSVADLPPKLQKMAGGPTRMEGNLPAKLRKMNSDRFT
T1 sequence (P48548 1-419): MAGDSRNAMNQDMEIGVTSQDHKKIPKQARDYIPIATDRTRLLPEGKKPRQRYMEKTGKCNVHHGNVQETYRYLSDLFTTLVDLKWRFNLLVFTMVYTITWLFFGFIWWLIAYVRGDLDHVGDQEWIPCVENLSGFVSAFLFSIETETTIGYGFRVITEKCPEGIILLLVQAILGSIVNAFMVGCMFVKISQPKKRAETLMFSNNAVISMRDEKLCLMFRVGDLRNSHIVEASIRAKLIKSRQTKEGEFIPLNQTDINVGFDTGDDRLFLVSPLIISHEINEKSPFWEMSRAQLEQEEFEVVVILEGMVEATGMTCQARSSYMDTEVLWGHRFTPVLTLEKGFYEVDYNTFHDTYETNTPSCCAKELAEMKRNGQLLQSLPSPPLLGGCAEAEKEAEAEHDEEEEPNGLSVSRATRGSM
Test: Kir3.1/3.4 Electrophysiology Method (manual whole-cell patch clamp)
Type: cell-based
Settings: Electrophysiology Method (TABLE 1)
How it was run: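 Percent inhibition is relative to the pre-drug current, both leak-subtracted using a potassium-free bather, taken as the mean current at −140 mV. The protocol was a step to +60 mV, a ramp to −140 mV, then a return to −60 mV holding, every 10 s. Cells were rat Kir3.1/3.4-transfected HEK293 recorded by whole-cell patch clamp.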

IC50	Structure (SMILES)
< 0.5 µM	COCCN(CCOC)CC1CCN(c2ncnc3scc(-c4ccccc4)c23)CC1 [Example 53, 2-methoxy-N-(2-methoxyethyl)-N-[[1-(5-phenylthieno[2,3-d]pyrimidin-4-yl)-4-piperidyl]methyl]ethanamine]
< 0.5 µM	OCC1CCCN1CC1CCN(c2ncnc3scc(-c4ccccc4)c23)CC1 (stereo not shown) [Example 65, [1-[[1-(5-phenylthieno[2,3-d]pyrimidin-4-yl)-4-piperidyl]methyl]pyrrolidin-2-yl]methanol]
< 0.5 µM	c1ccc(CNc2sc3ncnc(N4CCC(COCCN5CCCC5)CC4)c3c2-c2ccccc2)cc1 [Example 168, N-benzyl-5-phenyl-4-[4-(2-pyrrolidin-1-ylethoxymethyl)-1-piperidyl]thieno[2,3-d]pyrimidin-6-amine]
< 0.5 µM	NC(=O)[C@H]1CCCN1CCOCC1C2CN(c3ncnc4scc(-c5ccc(F)cc5)c34)CC12 (stereo partly drawn) [Example 45, (2R)-1-[2-[[3-[5-(4-fluorophenyl)thieno[2,3-d]pyrimidin-4-yl]-3-azabicyclo[3.1.0]hexan-6-yl]methoxy]ethyl]pyrrolidine-2-carboxamide]
< 0.5 µM	CN1CCCC1COCC1CCN(c2ncnc3scc(-c4ccccc4)c23)CC1 (stereo not shown) [Example 7, 4-[4-[(1-methylpyrrolidin-2-yl)methoxymethyl]-1-piperidyl]-5-phenyl-thieno[2,3-d]pyrimidine]
< 0.5 µM	CN1CCC(N(C)CC2CCN(c3nc(N4CC(C(N)=O)C4)nc4scc(-c5ccccc5)c34)CC2)C1 (stereo not shown) [Example 237]
< 0.5 µM	CN(CC1CCN(c2ncnc3scc(-c4ccccc4)c23)CC1)C1CCC1 [Example 251]
< 0.5 µM	c1ccc(-c2csc3nc(C4CC4)nc(N4CCC(COCCN5CCCC5)CC4)c23)cc1 [Example 360]
0.5 to 3 µM	CN(C)C1CCN(c2ncnc3scc(-c4ccccc4)c23)CC1 [Example 169]
< 0.5 µM	CN(C)CCN(C)CC1CCN(c2nc(N3CCC(C(N)=O)C3)nc3scc(-c4ccccc4)c23)CC1 (stereo not shown) [Example 225]
< 0.5 µM	c1ccc(-c2csc3ncnc(N4CCC(CNC5CC5)CC4)c23)cc1 [Example 74, N-[[1-(5-phenylthieno[2,3-d]pyrimidin-4-yl)-4-piperidyl]methyl]cyclopropanamine]
< 0.5 µM	N[C@H]1CCCN(CC2CCN(c3ncnc4scc(-c5ccccc5)c34)CC2)C1 [Example 90, (3S)-1-[[1-(5-phenylthieno[2,3-d]pyrimidin-4-yl)-4-piperidyl]methyl]piperidin-3-amine]
< 0.5 µM	CC(C)c1csc2ncnc(N3CCC(COCCN4CCCC4)CC3)c12 [Example 265]
< 0.5 µM	CC(C)NC(=O)c1sc2ncnc(N3CCC(COCCN4CCCC4)CC3)c2c1-c1cccc(F)c1 [Example 137]
0.5 to 3 µM	CN1CC(N(C)CC2CCN(c3ncnc4scc(-c5ccccc5)c34)CC2)CC1=O (stereo not shown) [Example 250]
< 0.5 µM	CC(=O)NC1CCN(c2nc(N3CCC(COCCN4CCOCC4)CC3)c3c(-c4ccccc4)csc3n2)C1 (stereo not shown) [Example 259]
< 0.5 µM	CC(C)N1CCCC1CCN(C)CC1CCN(c2ncnc3scc(-c4ccccc4)c23)CC1 (stereo not shown) [Example 88, 2-(1-isopropylpyrrolidin-2-yl)-N-methyl-N-[[1-(5-phenylthieno[2,3-d]pyrimidin-4-yl)-4-piperidyl]methyl]ethanamine]
0.5 to 3 µM	O=C(NCCN1CCOCC1)C1CCCN(c2ncnc3scc(-c4ccccc4)c23)C1 (stereo not shown) [Example 285]
< 0.5 µM	FC(F)(F)c1nc(N2CCC(COCCN3CCCC3)CC2)c2c(-c3ccccc3)csc2n1 [Example 340, 5-phenyl-4-[4-(2-pyrrolidin-1-ylethoxymethyl)-1-piperidyl]-2-(trifluoromethyl)thieno[2,3-d]pyrimidine]

Structure (SMILES)	IC50
CN1CCN(CC2CCN(c3ncnc4scc(-c5ccccc5)c34)CC2)CC1 [Example 214]	< 0.5 µM
NC(=O)C1CCN(c2nc(N3C4CCC3CC(CO)C4)c3c(-c4ccccc4)csc3n2)C1 (stereo not shown) [Example 310]	0.5 to 3 µM
CC(C)(C)NCC1CC2CCC(C1)N2c1ncnc2scc(-c3ccccc3)c12 (stereo not shown) [Example 333]	< 0.5 µM
